PMC4491105, “Synthesis and anticancer activity of thiosubstituted purines” (Medicinal Chemistry Research, 2015)
≈ marks a conversion by molar mass, not a printed value. Entries after “also recorded” stand apart in the source; their conditions may differ.

Tests used:
[1] = tested on: T47D (human ductal breast epithelial tumor cell line); experiment: Antiproliferative WST-1 assay, breast tumor T47D; format: cell-based; conditions: T47D cells; for EC50: Homo sapiens, read-out: Antiproliferative activity EC50 T47-D
Procedure: (§1) Compounds were evaluated for their anticancer activity using […] cultured cell lines: SNB-19 (human glioblastoma, DSMZ—German Collection of Microorganisms and Cell Cultures, Braunschweig, Germany), C-32 (human amelanotic melanoma, ATCC—American Type Culture Collection, Manassas, VA, USA), T47D (human ductal breast epithelial tumor cell line, ATCC, Manassas, VA, USA), and HFF-1 (human fibroblast cell line, ATCC, Manassas, VA, USA). The cultured cells were kept at 37 °C and 5 % CO2. The cells were seeded (1 × 10^4 cells/well/100 μl DMEM supplemented with 10 % FCS and streptomycin and penicillin) using 96-well plates (Corning).
(§2) In recent years, tetrazolium salts have been described which can be used for the measurement of cell proliferation and viability. The tetrazolium salts are cleaved to formazan by cellular enzymes. An expansion in the number of viable cells results in an increase in the overall activity of mitochondrial dehydrogenases in the sample. This augmentation in enzyme activity leads to an increase in the amount of formazan dye formed, which directly correlates with the number of metabolically active cells in the culture. The formazan dye produced by metabolically active cells is quantified by a scanning ELISA reader by measuring the absorbance of the dye solution at appropriate wavelengths (λ = 420–480 nm with a reference wavelength λ = 600 nm).
(§3) Antiproliferative effect of compounds was determined using the Cell Proliferation Reagent WST-1 assay (Roche Diagnostics, Mannheim, Germany). After exposure to tested compounds (at concentrations between 0 and 100 μg/ml) for 72 h, cells were incubated with WST-1 (10 μl) for 1 h, and the absorbance of the samples against a background control was read at 450 nm using with a reference wavelength λ = 600 nm a microplate reader. Results are expressed as means of at least two independent experiments performed in triplicate.

[2] = tested on: HFF-1 (human fibroblast cell line); experiment: Antiproliferative WST-1 assay, normal fibroblasts HFF-1 (toxicity control); format: cell-based
Procedure: as §1, §2, §3

[3] = tested on: SNB-19 (human glioblastoma); experiment: Antiproliferative WST-1 assay, glioblastoma SNB-19; format: cell-based; conditions: for EC50: Homo sapiens, SNB-19, 72 h, read-out: Antiproliferative activity EC50 SBN-19; for EC50 / Antiproliferative activity EC50 SBN-19 / Activity against SNB-19 cell line (in words): SNB-19 cells; for EC50 / Antiproliferative activity EC50 SBN-19: 72 h exposure, WST-1; for Activity against SNB-19 cell line (in words): compared with azathioprine
Procedure: as §1, §2, §3

[4] = tested on: C-32 (human amelanotic melanoma); experiment: Antiproliferative WST-1 assay, melanoma C-32; format: cell-based; conditions: C-32 cells; for EC50: Homo sapiens, C32
Procedure: as §1, §2, §3

[5] = normal human fibroblasts HFF-1, 72 h exposure, WST-1

Structure (SMILES)	EC50 ([1]; 72 h exposure, WST-1) [µg/mL]	EC50 [2, 5] [µg/mL]	EC50 [3] [µg/mL]	EC50 ([4]; 72 h exposure, WST-1) [µg/mL]	also measured
Cn1cnc([N+](=O)[O-])c1Sc1ncnc2nc[nH]c12 [Azathioprine, reference compound]	39 (≈ 141 µM)	55.9 (≈ 202 µM)	37.2 (≈ 134 µM)	35.6 (≈ 128 µM)	–
N.N.[Cl][Pt][Cl] [Cisplatin, reference compound]	–	–	–	–	Antiproliferative activity EC50 T47-D ([1]; 72 h exposure, WST-1): 8.79 µg/mL; Antiproliferative activity EC50 HFF-1 [2, 5]: 30.00 µg/mL; Antiproliferative activity EC50 SBN-19 [3]: 4.45 µg/mL; Antiproliferative activity EC50 C-32 ([4]; 72 h exposure, WST-1): 6.28 µg/mL
Cn1cnc([N+](=O)[O-])c1Sc1nc(Cl)c2c(ncn2C)n1 [Compound 2a]	41.1 (≈ 126 µM)	> 50	17.9 (≈ 55 µM)	21.8 (≈ 66.8 µM)	Activity against SNB-19 cell line (in words) [3]: more active than azathioprine; Activity against C-32 cell line (in words) [4]: more active than azathioprine
C=CCSc1nc(Sc2c([N+](=O)[O-])ncn2C)nc2ncn(C)c12 [Compound 2b]	49.6 (≈ 136 µM)	> 50	33.3 (≈ 91.5 µM)	35.3 (≈ 97.2 µM)	Activity against SNB-19 cell line (in words) [3]: more active than azathioprine; Activity against C-32 cell line (in words) [4]: more active than azathioprine
Cn1cnc([N+](=O)[O-])c1Sc1nc(Cl)nc2ncn(C)c12 [Compound 3a]	> 50	34.9 (≈ 107 µM)	30.4 (≈ 93.3 µM)	12.8 (≈ 39.3 µM)	Activity against SNB-19 cell line (in words) [3]: more active than azathioprine; Activity against C-32 cell line (in words) [4]: more active than azathioprine; also recorded: good activity
COc1nc(Sc2c([N+](=O)[O-])ncn2C)c2c(ncn2C)n1 [Compound 3b]	> 50	> 50	> 50	> 50	–
CSc1nc(Sc2c([N+](=O)[O-])ncn2C)c2c(ncn2C)n1 [Compound 3c]	48.6 (≈ 144 µM)	> 50	> 50	> 50	–
Cn1cnc([N+](=O)[O-])c1Sc1nc(Sc2c([N+](=O)[O-])ncn2C)c2c(ncn2C)n1 [Compound 3d, 7-methyl-2,6-di(1-methyl-4-nitroimidazol-5-ylthio)purine]	> 50	> 50	> 50	> 50	Anticancer activity against tested cell lines (in words) ([3]; SNB-19, C-32 and T47D cell lines overall): inactive
CCN(CC)CCSc1nc(Cl)nc2ncn(C)c12 [Compound 4a]	41.3 (≈ 138 µM)	> 50	28.8 (≈ 96 µM)	22.5 (≈ 74.9 µM)	–
CN(C)CCCSc1nc(Cl)nc2ncn(C)c12 [Compound 4b]	> 50	> 50	< 10	> 50	Antiproliferative activity EC50 SBN-19 [3]: 8.45 µg/mL
CCN(CC)CCSc1nc(SCCN(CC)CC)c2c(ncn2C)n1 [Compound 4c]	24 (≈ 60.5 µM)	40 (≈ 101 µM)	< 10	33.5 (≈ 84.6 µM)	Antiproliferative activity EC50 SBN-19 [3]: 9.82 µg/mL
CN(C)CCCSc1nc(SCCCN(C)C)c2c(ncn2C)n1 [Compound 4d]	> 50	> 50	36.3 (≈ 98.4 µM)	> 50	–
Cn1cnc2nc(SCCN3CCCC3)nc(SCCN3CCCC3)c21 [Compound 4e]	38.4 (≈ 97.8 µM)	35.4 (≈ 90.2 µM)	< 10	27.1 (≈ 68.9 µM)	Antiproliferative activity EC50 SBN-19 [3]: 7.95 µg/mL
Cn1cnc2nc(SCCN3CCCCC3)nc(SCCN3CCCCC3)c21 [Compound 4f]	32.2 (≈ 76.7 µM)	45.5 (≈ 108 µM)	< 10	21.8 (≈ 51.8 µM)	Antiproliferative activity EC50 SBN-19 [3]: 9.18 µg/mL
Cn1cnc2nc(SCCN3CCOCC3)nc(SCCN3CCOCC3)c21 [Compound 4g]	> 50	> 50	> 50	> 50	–
C#CCSc1nc(Cl)nc2ncn(C)c12 [Compound 5a, 2-chloro-6-(prop-2-ynylthio)-7-methylpurine]	44.3 (≈ 186 µM)	49 (≈ 205 µM)	30.9 (≈ 130 µM)	35.4 (≈ 148 µM)	melting point: 183 to 184 °C
Cn1cnc2nc(Cl)nc(SCC#CCN3CCCC3)c21 [Compound 5b, 2-chloro-6-(4-N-pyrrolidinylbut-2-ynylthio)-7-methylpurine]	46 (≈ 143 µM)	43.1 (≈ 134 µM)	5 (≈ 15.5 µM)	7.58 (≈ 23.6 µM)	melting point: 129 to 130 °C; Activity against T47D cell line (in words) [1]: weak active; Toxicity against normal fibroblasts HFF-1 (in words) ([2]; HFF-1 cells): weak active
Cn1cnc2nc(Cl)nc(S(N)(=O)=O)c21 [Compound 8a, 2-Chloro-7-methyl-6-purinesulfonamide]	> 50	> 50	> 50	> 50	–
COc1nc(S(N)(=O)=O)c2c(ncn2C)n1 [Compound 8b, 2-Methoxy-7-methyl-6-purinesulfonamide]	> 50	> 50	35 (≈ 144 µM)	> 50	–
CSc1nc(S(N)(=O)=O)c2c(ncn2C)n1 [Compound 8c, 2-Methylthio-7-methyl-6-purinesulfonamide]	> 50	> 50	> 50	> 50	–
Cn1cnc2nc(S(N)(=O)=O)nc(S(N)(=O)=O)c21 [Compound 8d, 7-Methyl-2,6-purinedisulfonamide]	> 50	> 50	> 50	> 50	–
Cn1cnc2nc(Cl)nc(SN)c21 [Compound 10a, 2-Chloro-7-methyl-6-purinesulfenamide]	> 50	> 50	> 50	> 50	–
